The record followed here is patent US8795734B2, “Hydrophobic nanotubes and nanoparticles as transporters for the delivery of drugs into cells” (The Board of Trustees of the Leland Stanford Junior …, priority 2005, dated 2014).

In one data set the test system is CXCR4. The data set is described as follows: Silencing by PL-PEG-s-s-siRNA conjugates of different nanoparticles. Format: cell-based. The source says:
Conjugates as prepared according to Examples 24-27 were made with nanoparticles other than SWNTs. It was shown that MWNTs, carbon black nanoparticles can all be used to make noncovalent PL-PEG-s-s-siRNA conjugates. […] Referring to FIG. 10A, the silencing effect for these conjugates is shown with reference to SWNT conjugates. The experiments were done with the following:
Referring now to FIG. 10B, CXCR4 silencing is shown for different nanoparticles. Polystyrene spheres (PS, 20 nm and 50 nm) were also used to make noncovalent PL-PEG-s-s-siRNA conjugates. […] The data in FIG. 10B below compares the RNAi effects of PS delivery vs. nanotube delivery.

For the next data set, the system named is HL60 cells. Kind of data set: Cellular uptake of SWNT conjugates by confocal microscopy and flow cytometry. Format: cell-based, human. Particulars: protein alone, versus untreated cells. On the procedure:
HL60 and Jurkat cells were both grown in RPMI-1640 cell culture medium (Invitrogen) supplemented with 10% fetal bovine serum (FBS). Prior to incubation, the cells were collected by centrifugation and resuspended in RPMI medium at a cell density of 3μ 10^6 cells/mL. Incubation of cells in a nanotube solution was done by mixing 100 μL of the cell suspension with 100 μL of a SWNT solution (2, 3 or 4) at 37° C. unless otherwise stated. The concentration of SWNT in the incubation solution was ˜0.05 mg/mL unless otherwise stated, and the incubation duration was always 1 h in 5% CO2 atmosphere except for time dependent incubation experiments. After incubation, the cells were washed and collected by centrifugation twice, and resuspended in RPMI medium.
FM4-64 (Molecular Probes Inc.) is a classical marker used for staining membrane and endosomes. The cell incubations were carried out under similar conditions as discussed in the previous section, except that FM 4-64 (2% v/v) was added to the incubation mixture. […]
Also, cells were analyzed by a Becton-Dickinson FACScan instrument after incubation in various nanotube solutions. […] We carried out dual detection of red and green fluorescence with the cells. The data presented here represent the mean green fluorescence obtained with a population of 10,000 live cells.
A general note: Flow cytometry measures light scatter and fluorescence of single cells or particles in a stream.

Data set [1] relates to HL-60 cells. Kind of data set: Cell proliferation CellTiter 96 MTS assay. Format: cell-based, human. To be noted: 2 h incubation, monitored up to 5 days versus untreated cells. On the procedure:
After incubation with the SWNT-streptavidin conjugate (unlabeled), HL-60 cells were washed and resuspended in RPMI media. The cells were plated in a 6-well plate at a density of ˜8×10^3 cells/well. At 24 h interval, Celltiter96 reagent (Promega) was added to one of the wells and allowed to incubate for ˜2-3 h at 37° C. and 5% CO2. The CellTiter 96 assay uses the tetrazolium compound (3-(4,5-dimethylthiazol-2-yl)-5-(3-carboxymethoxyphenyl)-2-(4-sulfophenyl)-2H-tetrazolium, inner salt; MTS) and the electron-coupling reagent, phenazine methosulfate (PMS). […] The measurement of the absorbance of the formazan can be carried out at 490 nm. […]
We used the CellTiter 96 MTS assay (Promega) to examine the proliferation of HL60 cells following exposure to SWNT-protein conjugates. […] The absorbance of the formazan salt can be measured at 490 nm and correlates to the number of cells in the suspension. The absorbance from the cells incubated with the SWNT-protein conjugates was measured over a period of 5 days in parallel with control cells never exposed to any nanotubes. The absorbance detected by a UV-VIS spectrophotometer was very similar for cells with and without exposure to SWNTs over the 5-day monitoring period.
Cells were incubated with SWNT-SA conjugate (without fluorescent label) for 2 hrs. […] The absorbance is then taken at 490 nm.
On the technique in general: Tetrazolium assays rely on reduction of a dye to a coloured formazan, in cell work by metabolically active cells.

The next data set has as its system HL60 and HeLa cells. Kind of data set: Internalization of SWNT-protein, SWNT-DNA and SWNT-SS-DNA conjugates (fluorescence confocal, flow cytometry). The format is cell-based, human.
For data set [2], the system named is HL-60 cells. Kind of data set: Cell viability study with PEG-phospholipid functionalized SWNTs (propidium iodide). The format is cell-based. As for the experimental part:
HL-60 cells were incubated and then washed to remove excess nanotubes, as described above. The cells were then placed into the incubator for an additional 24 h with the RPMI medium. The cells were then examined through a confocal microscope, after being stained with 2% (v/v) of propidium iodide (Biochemika), a common stain for dead cells. Control experiments were carried out for cells without exposure to nanotubes.
The confocal images (not shown) of HL-60 cells were obtained (a) untreated (b) treated with FTIC-PEG-PE modified CNTs for 90 min at 37° C. Cells were washed and allowed to incubate for an additional 24 h prior to confocal analysis. Propidium iodide is added to the suspension in order to stain for dead cells (red cells in the images).

The next data set concerns NIH-3T3 cells. The data set is described as follows: Apoptosis assay by Annexin V-FITC staining. The format is cell-based. The source says:
We use Annexin V labeled with fluorescein isothiocyanate (Molecular Probes) as an early stage apoptosis marker. One of the earliest indications of apoptosis is the translocation of the membrane phospholipid phosphatidylserine (PS) from the inner to the outer leaflet of the plasma membrane. Once exposed to the extracellular environment, binding sites on PS become available for Annexin V, a ˜35 kDa Ca^2+-dependent, phospholipid binding protein with a high affinity for PS (Pigault, C.; Follenius-Wund, A.; Schmutz, M.; Freyssinet, J.; Brisson, A. J. Mol. Biol. 1994, 236, 199) (also see Sigma Technical Bulletin number MB-390). In this study, NIH 3T3 cells were plated and incubated with SWNT-cytochrome c as described above. […] The cells were co-stained with propidium iodide and immediately analyzed by flow cell cytometry. Apoptosis data in FIG. 3 were for cells free of PI-staining recorded ˜4-5 h after exposure to chloroquine with or without (for control) cyt c-SWNT conjugates.
HeLa (human cervix carcinoma) and NIH-3T3 cell lines, shown previously to undergo cyt-c-induced apoptosis were investigated in this study for intracellular transporting of cyt-c with SWNTs and for apoptosis assay (Cai). Unlike the proteins used for other uptake experiments, cyt-c used for binding to SWNTs and transported inside cells for apoptosis assay were free of any fluorescence label. […]

Data set [3] deals with endosomal compartments of cells. Kind of data set: Endosome release of protein-SWNT conjugates by chloroquine (confocal). Format: cell-based. The source says:
A.; Murthy, N.; Press, O. W.; Tirrell, D. A.; Hoffman, A. S.; Stayton, P. S. Bioconj. Chem. 1999, 10, 401; Cho, Y. W.; Kim, J. D.; Park, K. J. Pharm. Pharmacol. 2003, 55, 721). These methods make use of the pH difference across the endosome membrane and the pH response of the polymers or amines. For SWNT transporters, similar complexation schemes can be developed to afford nanotube transporters containing an endosome-releasing agent. While such an effort warrants detailed investigations separately from the current work, we describe here the release of internalized protein-SWNT conjugates from the endosomal compartments by adding chloroquine to cell medium during incubation of cells in protein-SWNT conjugates. […] The resulting osmotic pressure can lead to swelling of the endosomal compartments and eventual rupture (Ogris, M.; Steinlein, P.; Kursa, M.; Mechtler, K.; Kircheis, R.; Wagner, E. Gene Ther. 1998, 5, 1425).
In experiments carried out with and without chloroquine, we noticed a difference in the distribution of the detected fluorescence inside the cells. […] FIG. 2 (a) Cells are incubated with (a) SWNT-CytC conjugate and (b) SWNT-CytC+100 μM of chloroquine at 37° C. and 5% CO2 Confocal images are taken immediately after incubation and washing. […]

Description for HL60 and HeLa cells: Two cell lines, human promyelomonocytic HL60 cells and cervical cancer HeLa cells were used in the current work. HL60 were cultured in RPMI medium supplemented with 10% fetal bovine serum (FBS), while HeLa cells were cultured in DMEM medium supplemented with 10% FBS and 1% penicillin-streptomycin. The cells were suspended in phosphate buffered saline (PBS), mixed with a SWNT conjugate and incubated for 1-3 h at 37° C., except for the low temperature incubations. The concentration of SWNTs in the incubation solution was typically ˜2.5 mg/L as measured by UV-vis-NIR absorption spectrum, and the cell density was ˜2×10^5 cells/well. Adherent HeLa cells were either trypsinized to detach from the Petri dishes to form a suspension or were seeded overnight in chambered cover-slides.
Both the protein and DNA molecules were labeled with a fluorescent tag (by either Cy3 or Alexa Fluor 488) to allow for confocal fluorescence imaging and flow cytometry analysis.
We carried out incubations of protein-SWNT and DNA-SWNT with HL60 and HeLa cells at 4° C. and with cells pretreated with NaN3.

As to Carbon black, the “cell entry and siRNA delivery” value in the data set with CXCR4 is “able to enter cells and deliver siRNA into cells”. In addition, the “silencing effect compared to SWNT conjugates (FIG. 10A)” value in the data set on CXCR4 (~20 nM nanoparticle) is “greater silencing efficiency at day 3”.
“SA: Fluoresceinated streptavidin protein alone, MW ~60 kD”: the “fluorescence of cells by flow cytometry” value in the data set on HL60 cells is listed as “only slightly greater than the background fluorescence of untreated cells”.
For the substance “SWNT-SA conjugate: Streptavidin without fluorescent label non-specifically bound to oxidized SWNTs”, the “cell proliferation (absorbance at 490 nm)” value in the data set on HL-60 cells [1] is reported as “does not show any deviation from the proliferation of untreated cells”.
With “SWNT-protein: Fluorescently labeled BSA non-specifically bound to oxidized Hipco SWNTs”, the cellular internalization entry with HL60 and HeLa cells (1-3 h at 37 °C) is given as “cellular internalization”. For the same substance, the “level of fluorescence in the cells” value in the data set with HL60 and HeLa cells (4 °C incubation and NaN3 pretreatment (ATP depletion)) is given as “considerably lower”.
With Tween-20, the “effect of surfactant exposure on cells” value in the data set on HL-60 cells [2] is “Cells tended to die”.
Turning to “cyt-c-SWNT: Cytochrome c (12 kD) non-covalently bound to oxidized SWNTs”, the “percentage of apoptosed cells versus cyt-c alone” value in the data set on NIH-3T3 cells (Annexin V-FITC staining) was “significantly higher percentages of apoptosed cells”. Further, the “degree of apoptosis with versus without chloroquine” value in the data set on NIH-3T3 cells (in the presence of chloroquine) is listed as “Higher degrees of apoptosis”. The “distribution of fluorescence inside the cells” value in data set [3] (100 μM chloroquine) is “diffuse and uniform”; in data set [3] (absence of chloroquine), “discrete punctate fluorescence spots”.
